The text below walks through data of ChEMBL document CHEMBL1201862, “PubChem BioAssay data set” (2004).

In test [1] the target is T1, Hexokinase HKDC1 (Homo sapiens, UniProt Q2TB90).
T1 sequence (Q2TB90 whole entry): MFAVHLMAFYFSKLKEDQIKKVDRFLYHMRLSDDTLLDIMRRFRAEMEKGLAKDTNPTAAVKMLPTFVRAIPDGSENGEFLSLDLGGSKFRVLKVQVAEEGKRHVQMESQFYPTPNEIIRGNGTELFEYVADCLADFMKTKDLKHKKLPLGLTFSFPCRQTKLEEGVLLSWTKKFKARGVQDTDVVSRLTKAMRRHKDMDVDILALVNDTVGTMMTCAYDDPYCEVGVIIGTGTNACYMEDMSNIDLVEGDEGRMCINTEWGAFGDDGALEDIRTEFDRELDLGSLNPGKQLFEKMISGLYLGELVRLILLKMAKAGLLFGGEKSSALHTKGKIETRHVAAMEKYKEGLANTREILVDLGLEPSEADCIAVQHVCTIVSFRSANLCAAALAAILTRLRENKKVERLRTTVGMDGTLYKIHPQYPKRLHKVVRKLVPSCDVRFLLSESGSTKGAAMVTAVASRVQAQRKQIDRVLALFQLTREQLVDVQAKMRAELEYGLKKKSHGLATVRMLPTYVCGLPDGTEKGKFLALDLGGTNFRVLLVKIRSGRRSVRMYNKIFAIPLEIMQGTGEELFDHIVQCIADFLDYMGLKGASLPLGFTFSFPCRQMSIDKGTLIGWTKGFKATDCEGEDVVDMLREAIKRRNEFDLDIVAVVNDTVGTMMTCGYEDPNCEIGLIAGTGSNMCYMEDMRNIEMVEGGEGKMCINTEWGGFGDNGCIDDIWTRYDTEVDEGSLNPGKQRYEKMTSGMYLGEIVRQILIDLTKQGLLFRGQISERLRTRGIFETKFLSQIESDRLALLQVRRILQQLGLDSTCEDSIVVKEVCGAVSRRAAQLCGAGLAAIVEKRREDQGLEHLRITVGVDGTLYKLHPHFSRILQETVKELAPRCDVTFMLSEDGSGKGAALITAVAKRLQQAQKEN
The test can be described thus: activation of HKDC1 glucose phosphorylation – biochemical, W721R variant, dose response (AID 504730). It is filed as functional.

Test [2] deals with Nonstructural protein 1 (Influenza A virus, UniProt Q194T2). In kind it is functional, Influenza A virus (A/California/07/2009(H1N1)).
Nonstructural protein 1, sequence (Q194T2 whole entry): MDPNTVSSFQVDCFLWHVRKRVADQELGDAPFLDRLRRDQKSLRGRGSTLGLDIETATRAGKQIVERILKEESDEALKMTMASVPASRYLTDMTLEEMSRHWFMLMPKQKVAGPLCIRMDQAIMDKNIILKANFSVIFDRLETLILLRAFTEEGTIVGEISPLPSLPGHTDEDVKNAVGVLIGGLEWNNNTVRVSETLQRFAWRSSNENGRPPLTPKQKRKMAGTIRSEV
In test [3] the target is Hexokinase-1 (Homo sapiens, UniProt P19367). The test can be described thus: HK1 enzyme activation by HKDC1 hits – biochemical, selectivity assay for HKDC1 activator project, dose response (AID 504762). It is filed as functional.
Hexokinase-1, sequence (P19367 whole entry): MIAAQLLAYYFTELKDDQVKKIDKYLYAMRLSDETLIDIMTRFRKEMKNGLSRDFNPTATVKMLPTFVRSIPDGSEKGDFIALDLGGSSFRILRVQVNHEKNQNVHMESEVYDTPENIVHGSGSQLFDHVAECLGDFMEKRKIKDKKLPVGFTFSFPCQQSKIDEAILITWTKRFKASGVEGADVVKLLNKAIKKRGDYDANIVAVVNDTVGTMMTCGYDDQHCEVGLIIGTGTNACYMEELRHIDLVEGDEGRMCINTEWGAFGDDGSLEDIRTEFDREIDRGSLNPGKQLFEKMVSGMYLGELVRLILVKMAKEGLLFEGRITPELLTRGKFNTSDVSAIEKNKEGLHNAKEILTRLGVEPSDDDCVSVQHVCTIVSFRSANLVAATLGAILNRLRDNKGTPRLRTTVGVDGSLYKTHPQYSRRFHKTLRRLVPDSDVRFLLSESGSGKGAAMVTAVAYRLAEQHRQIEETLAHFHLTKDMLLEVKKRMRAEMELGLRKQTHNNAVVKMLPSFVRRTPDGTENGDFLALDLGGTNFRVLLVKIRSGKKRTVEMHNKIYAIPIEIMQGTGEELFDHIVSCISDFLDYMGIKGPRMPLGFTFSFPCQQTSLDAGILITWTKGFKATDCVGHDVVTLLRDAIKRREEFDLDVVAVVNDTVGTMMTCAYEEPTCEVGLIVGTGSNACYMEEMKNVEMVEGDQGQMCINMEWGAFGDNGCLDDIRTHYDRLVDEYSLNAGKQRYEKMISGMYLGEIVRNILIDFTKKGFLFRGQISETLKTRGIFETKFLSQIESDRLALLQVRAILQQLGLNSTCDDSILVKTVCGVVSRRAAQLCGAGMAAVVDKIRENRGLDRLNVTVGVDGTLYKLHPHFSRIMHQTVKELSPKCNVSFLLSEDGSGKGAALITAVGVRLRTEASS
The target in test [4] is T2, Microphthalmia-associated transcription factor (Homo sapiens, UniProt O75030).
T2 sequence (O75030 whole entry): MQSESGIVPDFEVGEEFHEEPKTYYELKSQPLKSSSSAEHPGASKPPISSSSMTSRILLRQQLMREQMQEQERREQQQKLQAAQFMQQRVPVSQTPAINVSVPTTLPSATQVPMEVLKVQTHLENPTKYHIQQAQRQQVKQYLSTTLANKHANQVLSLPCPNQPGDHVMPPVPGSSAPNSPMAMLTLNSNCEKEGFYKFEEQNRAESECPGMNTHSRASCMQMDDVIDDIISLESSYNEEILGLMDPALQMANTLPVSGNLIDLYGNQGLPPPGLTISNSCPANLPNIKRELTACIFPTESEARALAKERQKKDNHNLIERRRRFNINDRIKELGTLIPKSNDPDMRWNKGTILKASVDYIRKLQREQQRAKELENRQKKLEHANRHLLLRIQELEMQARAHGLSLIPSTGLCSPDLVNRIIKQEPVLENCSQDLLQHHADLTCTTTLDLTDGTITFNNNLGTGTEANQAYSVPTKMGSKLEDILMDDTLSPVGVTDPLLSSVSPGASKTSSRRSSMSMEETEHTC
The test can be described thus: reducers of TRPM1 reporter luminescence, concentration series – cell-based, SK-MEL-5, cherry-picked, set 3, MITF inhibitor project, dose response (AID 493073).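 Note: SK-MEL-5 melanoma cells with luciferase driven by the MITF target TRPM1 promoter.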 In kind it is functional.

Test [5] relates to HEK293. The experiment in a line: EBV LMP1 TES2 canonical NF-kB signalling blockers – cell-based, HEK293, luciferase, cherry-pick, dose response (AID 588343). It is filed as functional. The conditions noted are these: Homo sapiens.
Test [6] deals with Heat shock protein HSP 90-alpha (Homo sapiens, UniProt P07900). It is filed as functional, organism-based.
The target in test [7] is Latent membrane protein 1 (Human herpesvirus 4 (strain B95-8), UniProt P03230). The test can be described thus: LMP1 TES1 pathway selectivity over dsRED control – imaging, HEK293T, dual-color eGFP/dsRED, cherry-picks, selectivity assay for LMP1 NF-kB inhibitor project, dose response (AID 588398). It is filed as functional, cell-based.
Latent membrane protein 1, sequence (P03230 whole entry): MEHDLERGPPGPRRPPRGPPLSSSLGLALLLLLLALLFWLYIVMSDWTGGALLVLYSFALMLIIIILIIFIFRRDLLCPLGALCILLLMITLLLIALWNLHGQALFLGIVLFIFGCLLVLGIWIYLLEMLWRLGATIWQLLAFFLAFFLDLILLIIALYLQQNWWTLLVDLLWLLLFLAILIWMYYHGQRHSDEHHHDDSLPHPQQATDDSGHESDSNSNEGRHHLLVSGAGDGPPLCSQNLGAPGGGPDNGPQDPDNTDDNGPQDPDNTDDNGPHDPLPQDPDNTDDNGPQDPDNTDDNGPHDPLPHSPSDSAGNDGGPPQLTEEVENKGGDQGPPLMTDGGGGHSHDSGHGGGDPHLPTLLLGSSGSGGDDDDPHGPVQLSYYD
In test [8] the target is Botulinum neurotoxin type A (Clostridium botulinum (strain Hall / ATCC 3502 / NCTC 13319 / Type A), UniProt P0DPI1). The test can be described thus: High-throughput multiplex microsphere dose response for inhibitors of toxin protease, specifically Botulinum neurotoxin light chain A protease, compounds from Cherry Pick 02. In kind it is functional. The note with it: read-out: EC50_MICROM.
Botulinum neurotoxin type A, sequence (P0DPI1 2-448 limits assumed): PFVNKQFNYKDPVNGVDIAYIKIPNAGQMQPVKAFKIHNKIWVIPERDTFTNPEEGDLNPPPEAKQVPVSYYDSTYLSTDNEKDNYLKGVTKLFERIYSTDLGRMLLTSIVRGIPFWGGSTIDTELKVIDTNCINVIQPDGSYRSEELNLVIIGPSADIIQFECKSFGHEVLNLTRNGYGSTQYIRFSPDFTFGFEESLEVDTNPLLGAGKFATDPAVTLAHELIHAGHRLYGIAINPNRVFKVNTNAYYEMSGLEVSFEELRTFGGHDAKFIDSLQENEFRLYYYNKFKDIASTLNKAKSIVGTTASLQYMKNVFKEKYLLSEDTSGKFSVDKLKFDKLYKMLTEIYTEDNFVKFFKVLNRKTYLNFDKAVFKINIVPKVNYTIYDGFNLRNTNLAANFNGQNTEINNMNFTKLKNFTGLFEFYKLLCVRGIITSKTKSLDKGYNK

The target of test [9] is Lethal factor (Bacillus anthracis, UniProt P15917). The test can be described thus: High-throughput multiplex microsphere dose response for inhibitors of toxin protease, specifically Lethal Factor protease, compounds from Cherry Pick 02. The conditions noted are these: read-out: EC50_MICROM. It is filed as functional.
Lethal factor, sequence (P15917 whole entry): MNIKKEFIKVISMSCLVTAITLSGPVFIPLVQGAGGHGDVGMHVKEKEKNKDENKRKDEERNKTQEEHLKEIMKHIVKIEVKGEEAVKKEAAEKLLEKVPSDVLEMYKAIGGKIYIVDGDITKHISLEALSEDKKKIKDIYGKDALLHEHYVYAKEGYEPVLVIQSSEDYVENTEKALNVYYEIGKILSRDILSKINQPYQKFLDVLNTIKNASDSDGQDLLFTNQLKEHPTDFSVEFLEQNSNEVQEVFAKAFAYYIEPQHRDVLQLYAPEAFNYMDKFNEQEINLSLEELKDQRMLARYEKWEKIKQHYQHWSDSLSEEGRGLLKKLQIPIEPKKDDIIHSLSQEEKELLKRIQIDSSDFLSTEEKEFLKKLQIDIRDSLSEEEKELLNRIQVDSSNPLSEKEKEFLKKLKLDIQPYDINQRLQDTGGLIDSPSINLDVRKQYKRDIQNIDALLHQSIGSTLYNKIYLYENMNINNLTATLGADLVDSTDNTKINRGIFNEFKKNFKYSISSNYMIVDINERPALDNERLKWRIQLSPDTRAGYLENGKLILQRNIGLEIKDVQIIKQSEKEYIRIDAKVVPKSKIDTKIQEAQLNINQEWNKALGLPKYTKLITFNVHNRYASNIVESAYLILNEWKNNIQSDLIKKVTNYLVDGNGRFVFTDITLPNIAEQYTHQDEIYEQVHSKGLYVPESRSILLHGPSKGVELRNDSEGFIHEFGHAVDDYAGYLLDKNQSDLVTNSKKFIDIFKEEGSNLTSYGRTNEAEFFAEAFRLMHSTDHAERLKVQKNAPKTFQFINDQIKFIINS
The target in test [10] is Botulinum neurotoxin type F (Clostridium botulinum, UniProt P30996). The experiment in a line: High-throughput multiplex microsphere dose response for inhibitors of toxin protease, specifically Botulinum neurotoxin light chain F protease, compounds from Cherry Pick 02. In kind it is functional. The note with it: read-out: EC50_MICROM.
Botulinum neurotoxin type F, sequence (P30996 1-436 limits assumed): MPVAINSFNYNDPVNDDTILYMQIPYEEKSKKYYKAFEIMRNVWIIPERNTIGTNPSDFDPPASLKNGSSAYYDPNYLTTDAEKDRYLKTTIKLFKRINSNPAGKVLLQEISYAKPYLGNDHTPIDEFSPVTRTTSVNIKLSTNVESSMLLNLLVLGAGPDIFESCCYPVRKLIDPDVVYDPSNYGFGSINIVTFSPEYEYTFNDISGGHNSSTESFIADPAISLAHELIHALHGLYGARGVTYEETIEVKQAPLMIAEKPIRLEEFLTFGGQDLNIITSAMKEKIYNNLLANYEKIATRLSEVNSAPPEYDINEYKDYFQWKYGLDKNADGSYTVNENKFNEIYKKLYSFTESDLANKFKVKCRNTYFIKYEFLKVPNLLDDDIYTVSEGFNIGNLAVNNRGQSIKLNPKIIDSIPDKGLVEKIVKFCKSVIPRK

Activity calls are given as the source filed them.

One may read the IC50 as the midpoint of a concentration-inhibition curve. As usually defined, the AC50 is the midpoint of the concentration-response curve, whichever way the signal moves.

In the case of `CC(=NNc1nc2ccccc2o1)c1cc2ccccc2cn1`, the EC50 was 2.24 µM (active) in test [1]; > 80 µM (inactive) in test [3]; 5.1 µM (active) in [8]; 20 µM (inactive) in test [9]; 9.4 µM (active) in [10]. Further, the half-inhibitory concentration (IC50) in [2] is 7.16 µM (active). The concentration at half-maximal activity (AC50) in test [4] was 0.175 µM (active); in [5], 0.0887 µM (active); in test [6] it was 16.9 µM (active); in [7], 1.7 µM (active).
